Assay results taken from paper PMC3828642 (AoB Plants, 2013).

What was measured:
Format in all cases: biochemical
[1] = biological target: T1, 1-aminocyclopropane-1-carboxylic acid oxidase (ACCO1) (Malus domestica, UniProt Q00985); assay: steady-state kinetics, competitive activation (Ka), double reciprocal plot; design: purified recombinant ACCO
[2] = biological target: T1, 1-aminocyclopropane-1-carboxylic acid oxidase (ACCO1); assay: steady-state kinetics (data not shown)
[3] = biological target: T1, 1-aminocyclopropane-1-carboxylic acid oxidase (ACCO1); assay: steady-state kinetics, ethylene assay by GC, double reciprocal plot; UV/Vis spectrum; design: His-Tag fusion protein expressed in E. coli
[4] = biological target: T1, 1-aminocyclopropane-1-carboxylic acid oxidase (ACCO1); assay: steady-state kinetics, ethylene assay by GC; design: purified ACCO fusion protein

T1 sequence (Q00985 whole entry): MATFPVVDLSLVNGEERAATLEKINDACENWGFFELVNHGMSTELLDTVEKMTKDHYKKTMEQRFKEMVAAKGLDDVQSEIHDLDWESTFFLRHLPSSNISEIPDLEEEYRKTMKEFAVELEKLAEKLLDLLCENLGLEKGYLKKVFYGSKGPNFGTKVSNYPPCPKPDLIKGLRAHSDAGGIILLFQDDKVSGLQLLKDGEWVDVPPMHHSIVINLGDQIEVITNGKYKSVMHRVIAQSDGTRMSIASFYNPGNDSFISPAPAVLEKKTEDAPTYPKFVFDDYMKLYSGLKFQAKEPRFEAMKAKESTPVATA

O=c1[nH]c(=O)c2nccnc2[nH]1 [2,4-pteridinediol]
steady-state kinetics, competitive activation (Ka), double reciprocal plot [1]: 2.2 mM

O=C(O)CC(=O)C(=O)O [Oxaloacetic acid]
Ki [2]: 930 µM

O=C(O)CC(=O)O [Malonic acid]
Ki [2]: 70 µM

Cc1ncc(COP(=O)(O)O)c(C=O)c1O [Pyridoxal-5′-phosphate]
Ki [3]: 200 µM

O=C(O)[C@@H](O)[C@H]1OC(=O)[C@H](O)[C@H]1O [D-Saccharic acid 1,4-lactone]
Ki [4]: 300 µM
